Patent US9493436B2, “Tyrosine phosphatase inhibitors and uses thereof to modulate the activity of enzymes involved in the pathology of Mycobacterium tuberculosis” (priority 2011, dated 2016)

Columns and labels:
[1] = test system: Caspase 3 activity in macrophage cells expressing mPTPB; assay type: cell-based; settings: especially at 120 and 240 nM
[2] = target: VHR (Homo sapiens, UniProt P51452); settings: read-out: IC50 (μM) VHR
[3] = target: T1, Lyp (Homo sapiens, UniProt Q9Y2R2); assay: biochemical; assay type: biochemical
T1 sequence (Q9Y2R2 1-807): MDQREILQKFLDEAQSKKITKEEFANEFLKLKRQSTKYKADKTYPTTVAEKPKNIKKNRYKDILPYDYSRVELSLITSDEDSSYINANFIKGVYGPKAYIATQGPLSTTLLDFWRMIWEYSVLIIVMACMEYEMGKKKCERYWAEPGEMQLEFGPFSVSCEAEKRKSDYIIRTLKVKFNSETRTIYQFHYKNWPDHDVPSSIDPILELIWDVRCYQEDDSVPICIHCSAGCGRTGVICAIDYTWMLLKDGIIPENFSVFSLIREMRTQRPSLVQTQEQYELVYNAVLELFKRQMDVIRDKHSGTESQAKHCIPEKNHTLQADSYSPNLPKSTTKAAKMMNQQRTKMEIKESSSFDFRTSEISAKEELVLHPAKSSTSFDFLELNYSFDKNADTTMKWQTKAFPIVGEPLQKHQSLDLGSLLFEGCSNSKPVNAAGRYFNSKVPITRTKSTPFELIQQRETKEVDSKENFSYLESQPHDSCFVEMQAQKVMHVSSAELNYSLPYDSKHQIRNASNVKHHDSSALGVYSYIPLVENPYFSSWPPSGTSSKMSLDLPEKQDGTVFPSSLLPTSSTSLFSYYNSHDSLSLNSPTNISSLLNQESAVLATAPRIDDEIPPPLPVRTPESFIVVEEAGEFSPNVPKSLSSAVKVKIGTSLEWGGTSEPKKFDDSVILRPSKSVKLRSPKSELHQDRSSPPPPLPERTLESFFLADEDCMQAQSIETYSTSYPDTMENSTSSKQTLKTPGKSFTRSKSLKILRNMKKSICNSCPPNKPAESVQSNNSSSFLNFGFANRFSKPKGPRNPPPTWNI

Chain of VHR (P51452 whole entry, species assumed): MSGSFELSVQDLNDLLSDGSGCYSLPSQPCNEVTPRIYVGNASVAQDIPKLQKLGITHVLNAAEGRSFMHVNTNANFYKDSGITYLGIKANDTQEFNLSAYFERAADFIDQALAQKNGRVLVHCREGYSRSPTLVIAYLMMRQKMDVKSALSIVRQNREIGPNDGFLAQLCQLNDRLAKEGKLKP

Compound: O=C(O)c1cc2c(C#Cc3cccc(C(F)(F)F)c3)c(-c3ccccc3)oc2cc1O [32 (L01Z08)]
- caspase 3 activity [1]: returns caspase 3 activity to near normal levels
- IC50 [2]: 1.9 ± 0.4 µM

Compound: Cn1c(-c2ccccc2C(F)(F)F)c(I)c2cc(C(=O)O)c(O)cc21 [Compound 207a, 6-hydroxy-3-iodo-1-methyl-2-(2-(trifluoromethyl)phenyl)-1H-indole-5-carboxylic acid]
- IC50 [3]: 75 ± 4 µM
